In article PMC10749220, “Development of a Rapid in vivo Assay to Evaluate the Efficacy of IRE1-specific Inhibitors of the Unfolded Protein Response Using Medaka Fish” (Cell Structure and Function, 2019):

Molecular target: T1, IRE1α (Homo sapiens, UniProt O75460)
T1 construct: gene ERN1; His-tagged cytoplasmic region of IRE1α (IRE1-C), expressed in SF9 insect cells
Test: in vitro XBP1 mRNA cleavage assay with purified IRE1-C, urea-PAGE, SYBR Gold stain
Format: biochemical

T1 sequence (O75460 465-977 limits assumed): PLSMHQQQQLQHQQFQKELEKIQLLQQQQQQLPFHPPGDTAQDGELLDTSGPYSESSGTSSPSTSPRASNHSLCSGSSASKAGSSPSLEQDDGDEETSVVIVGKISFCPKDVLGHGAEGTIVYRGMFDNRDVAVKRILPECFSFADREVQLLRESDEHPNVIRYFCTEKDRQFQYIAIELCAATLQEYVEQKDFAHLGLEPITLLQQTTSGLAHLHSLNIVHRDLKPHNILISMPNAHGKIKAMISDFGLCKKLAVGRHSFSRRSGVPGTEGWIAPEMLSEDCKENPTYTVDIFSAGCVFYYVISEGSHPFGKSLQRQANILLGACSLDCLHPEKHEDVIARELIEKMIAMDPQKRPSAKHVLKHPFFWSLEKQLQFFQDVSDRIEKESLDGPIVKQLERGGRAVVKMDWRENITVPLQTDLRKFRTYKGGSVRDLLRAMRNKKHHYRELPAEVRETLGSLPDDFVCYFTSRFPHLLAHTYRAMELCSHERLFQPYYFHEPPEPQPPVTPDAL

Row | SMILES | IC50
1 | Cc1cc(=O)oc2c(C=O)c(O)ccc12 [4μ8C] | 0.0741 µM
2 | Oc1ccc(/C=C/c2ccc(/C=C/c3ccc(O)cc3)c(Br)c2)cc1 [K114] | 30.8 µM
